{"source": "patent US20230382926A1", "about": "“COMPOUNDS AND USES THEREOF” (The University of The West Indies, priority 2022, published 2023)", "experiment_in_all_cases": "Rescue concentration, modified checkerboard MIC adjuvant assay", "assay_type_in_all_cases": "cell-based", "key": {"[1]": {"tested_on": "Pseudomonas aeruginosa MDR 5805", "settings": "P. aeruginosa MDR 5805", "how_it_was_run": "(§1)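 Twofold dilution series of test compound combined with a fixed antibiotic at its CLSI M100 susceptible breakpoint, only for antibiotics the strain resists. Inoculum 10^6 CFU/ml in ca-MHB, 35° C., 24 h aerobic. Rescue concentration: lowest compound level giving 99.99% growth reduction by visual read.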"}, "[2]": {"tested_on": "Stenotrophomonas maltophilia MDR 7785", "settings": "S. maltophilia MDR 7785", "how_it_was_run": "as §1"}, "[3]": {"tested_on": "Streptococcus pneumoniae ATCC 49619", "settings": "S. pneumoniae ATCC 49619"}, "[4]": {"tested_on": "Enterococcus faecalis ATCC 51299", "settings": "E. faecalis ATCC 51299", "how_it_was_run": "as §1"}, "[5]": {"tested_on": "Klebsiella pneumoniae ATCC 49472", "settings": "K. pneumoniae ATCC 49472", "how_it_was_run": "as §1"}, "[6]": {"tested_on": "Staphylococcus aureus ATCC BAA-2312", "settings": "S. aureus ATCC BAA-2312", "how_it_was_run": "as §1"}, "[7]": {"tested_on": "Escherichia coli ATCC 35150", "settings": "E. coli ATCC 35150", "how_it_was_run": "as §1"}, "[8]": {"tested_on": "Klebsiella pneumoniae ATCC BAA-2814", "settings": "K. pneumoniae ATCC BAA-2814", "how_it_was_run": "as §1"}, "[9]": {"settings": "Amox at susceptible breakpoint 8 μg mL^−1"}, "[10]": {"settings": "Gen at susceptible breakpoint 4 μg mL^−1"}, "[11]": {"settings": "Imi at susceptible breakpoint 2 μg mL^−1"}, "[12]": {"settings": "Mero at susceptible breakpoint 2 μg mL^−1"}, "[13]": {"settings": "Ceph at susceptible breakpoint 8 μg mL^−1"}, "[14]": {"settings": "Chl at susceptible breakpoint 8 μg mL^−1"}, "[15]": {"settings": "Amp at susceptible breakpoint 8 μg mL^−1"}, "[16]": {"settings": "Dox at susceptible breakpoint 4 μg mL^−1"}, "[17]": {"settings": "Tri at susceptible breakpoint 8 μg mL^−1"}, "[18]": {"settings": "Col at susceptible breakpoint 8 μg mL^−1"}, "[19]": {"settings": "Imi at susceptible breakpoint 1 μg mL^−1"}}, "data": [{"smiles": "Oc1ccc(C(c2c[nH]c3ncccc23)c2c[nH]c3ncccc23)cc1", "note": "[SP-7azaBIM 135, 4-(bis(1H-pyrrolo[2,3-b]pyridin-3-yl)methyl)phenol]", "values": [{"measurement": "Rescue concentration, Amox (8)", "setting": "[1]; [9]", "value": 64, "unit": "µg/mL"}, {"measurement": "Rescue concentration, Col (2)", "setting": "[1]; Col at susceptible breakpoint 2 μg mL^−1", "value": ">128", "unit": "µg/mL"}, {"measurement": "Rescue concentration, Gen (4)", "setting": "[1]; [10]", "value": ">128", "unit": "µg/mL"}, {"measurement": "Rescue concentration, Imi (2)", "setting": "[1]; [11]", "value": ">128", "unit": "µg/mL"}, {"measurement": "Rescue concentration, Mero (2)", "setting": "[1]; [12]", "value": ">128", "unit": "µg/mL"}, {"measurement": "Rescue concentration, Pol B (2)", "setting": "[1]; Pol B at susceptible breakpoint 2 μg mL^−1", "value": ">128", "unit": "µg/mL"}, {"measurement": "Rescue concentration, Cef (8)", "setting": "[2]; Cef at susceptible breakpoint 8 μg mL^−1", "value": ">128", "unit": "µg/mL"}, {"measurement": "Rescue concentration, Ceph (8)", "setting": "[2]; [13]", "value": ">128", "unit": "µg/mL"}, {"measurement": "Rescue concentration, Chl (8)", "setting": "[2]; [14]", "value": ">128", "unit": "µg/mL"}, {"measurement": "Rescue concentration, Cip (2)", "setting": "[2]; Cip at susceptible breakpoint 2 μg mL^−1", "value": ">128", "unit": "µg/mL"}, {"measurement": "Rescue concentration, Gen (4)", "setting": "[2]; [10]", "value": ">128", "unit": "µg/mL"}, {"measurement": "Rescue concentration, Imi (2)", "setting": "[2]; [11]", "value": ">128", "unit": "µg/mL"}, {"measurement": "Rescue concentration, Mero (2)", "setting": "[2]; [12]", "value": ">128", "unit": "µg/mL"}, {"measurement": "Rescue concentration, Tri (2)", "setting": "[2]; Tri at susceptible breakpoint 2 μg mL^−1", "value": ">128", "unit": "µg/mL"}, {"measurement": "Rescue concentration, Amox (2)", "setting": "[3]; Amox at susceptible breakpoint 2 μg mL^−1", "value": ">128", "unit": "µg/mL"}, {"measurement": "Rescue concentration, Ery (0.25)", "setting": "[3]; Ery at susceptible breakpoint 0.25 μg mL^−1", "value": ">128", "unit": "µg/mL"}, {"measurement": "Rescue concentration, Imi (0.12)", "setting": "[3]; Imi at susceptible breakpoint 0.12 μg mL^−1", "value": ">128", "unit": "µg/mL"}, {"measurement": "Rescue concentration, Amp (8)", "setting": "[4]; [15]", "value": ">128", "unit": "µg/mL"}, {"measurement": "Rescue concentration, Chl (8)", "setting": "[4]; [14]", "value": ">128", "unit": "µg/mL"}, {"measurement": "Rescue concentration, Dox (4)", "setting": "[4]; [16]", "value": ">128", "unit": "µg/mL"}, {"measurement": "Rescue concentration, Ery (0.5)", "setting": "[4]; Ery at susceptible breakpoint 0.5 μg mL^−1", "value": ">128", "unit": "µg/mL"}, {"measurement": "Rescue concentration, Tri (8)", "setting": "[4]; [17]", "value": ">128", "unit": "µg/mL"}, {"measurement": "Rescue concentration, Van (4)", "setting": "[4]; Van at susceptible breakpoint 4 μg mL^−1", "value": ">128", "unit": "µg/mL"}, {"measurement": "Rescue concentration, Amox (8)", "setting": "[5]; [9]", "value": ">128", "unit": "µg/mL"}, {"measurement": "Rescue concentration, Amp (8)", "setting": "[5]; [15]", "value": ">128", "unit": "µg/mL"}, {"measurement": "Rescue concentration, Col (8)", "setting": "[5]; [18]", "value": ">128", "unit": "µg/mL"}, {"measurement": "Rescue concentration, Imi (1)", "setting": "[5]; [19]", "value": ">128", "unit": "µg/mL"}, {"measurement": "Rescue concentration, Mero (1)", "setting": "[5]; Mero at susceptible breakpoint 1 μg mL^−1", "value": ">128", "unit": "µg/mL"}, {"measurement": "Rescue concentration, Pol B (8)", "setting": "[5]; Pol B at susceptible breakpoint 8 μg mL^−1", "value": ">128", "unit": "µg/mL"}, {"measurement": "Rescue concentration, Azi (2)", "setting": "[6]; Azi at susceptible breakpoint 2 μg mL^−1", "value": ">128", "unit": "µg/mL"}, {"measurement": "Rescue concentration, Gen (4)", "setting": "[6]; [10]", "value": ">128", "unit": "µg/mL"}, {"measurement": "Rescue concentration, Pen (0.12)", "setting": "[6]; Pen at susceptible breakpoint 0.12 μg mL^−1", "value": ">128", "unit": "µg/mL"}, {"measurement": "Rescue concentration, Tri (8)", "setting": "[6]; [17]", "value": ">128", "unit": "µg/mL"}, {"measurement": "Rescue concentration, Van (2)", "setting": "[6]; Van at susceptible breakpoint 2 μg mL^−1", "value": ">128", "unit": "µg/mL"}, {"measurement": "Rescue concentration, Amp (8)", "setting": "[7]; [15]", "value": ">128", "unit": "µg/mL"}, {"measurement": "Rescue concentration, Cip (0.25)", "setting": "[7]; Cip at susceptible breakpoint 0.25 μg mL^−1", "value": ">128", "unit": "µg/mL"}, {"measurement": "Rescue concentration, Dox (4)", "setting": "[7]; [16]", "value": ">128", "unit": "µg/mL"}, {"measurement": "Rescue concentration, Gen (4)", "setting": "[7]; [10]", "value": ">128", "unit": "µg/mL"}, {"measurement": "Rescue concentration, Imi (1)", "setting": "[7]; [19]", "value": 64, "unit": "µg/mL"}, {"measurement": "Rescue concentration, Amox (8)", "setting": "[8]; [9]", "value": ">128", "unit": "µg/mL"}, {"measurement": "Rescue concentration, Amp (8)", "setting": "[8]; [15]", "value": ">128", "unit": "µg/mL"}, {"measurement": "Rescue concentration, Aze (4)", "setting": "[8]; Aze at susceptible breakpoint 4 μg mL^−1", "value": ">128", "unit": "µg/mL"}, {"measurement": "Rescue concentration, Azi (16)", "setting": "[8]; Azi at susceptible breakpoint 16 μg mL^−1", "value": ">128", "unit": "µg/mL"}, {"measurement": "Rescue concentration, Cef (16)", "setting": "[8]; Cef at susceptible breakpoint 16 μg mL^−1", "value": ">128", "unit": "µg/mL"}, {"measurement": "Rescue concentration, Ceph (8)", "setting": "[8]; [13]", "value": ">128", "unit": "µg/mL"}, {"measurement": "Rescue concentration, Chl (8)", "setting": "[8]; [14]", "value": ">128", "unit": "µg/mL"}, {"measurement": "Rescue concentration, Col (8)", "setting": "[8]; [18]", "value": ">128", "unit": "µg/mL"}, {"measurement": "Rescue concentration, Dox (4)", "setting": "[8]; [16]", "value": ">128", "unit": "µg/mL"}, {"measurement": "Rescue concentration, Gen (4)", "setting": "[8]; [10]", "value": ">128", "unit": "µg/mL"}, {"measurement": "Rescue concentration, Imi (1)", "setting": "[8]; [19]", "value": ">128", "unit": "µg/mL"}, {"measurement": "Rescue concentration, Tet (4)", "setting": "[8]; Tet at susceptible breakpoint 4 μg mL^−1", "value": ">128", "unit": "µg/mL"}]}]}
